In assay [1] the test system is Escherichia coli. Briefly: Antibacterial activity against Escherichia coli ATCC 25922 at 5 ug after 48 hrs by silica gel plate-based INT-formazan method. It counts as functional, organism-based.
Assay [2] has as its system Bacillus subtilis. The assay is described as follows: Antibacterial activity against Bacillus subtilis ATCC 6633 at 5 ug after 48 hrs by silica gel plate-based INT-formazan method. In kind it is functional, organism-based.
The subject of assay [3] is Escherichia coli. Briefly: Antibacterial activity against Escherichia coli ATCC 25922 after 48 hrs by silica gel plate-based INT-formazan method. It counts as functional.
For assay [4], the system named is Bacillus subtilis. The assay is described as follows: Antibacterial activity against Bacillus subtilis ATCC 6633 after 48 hrs by silica gel plate-based INT-formazan method. In kind it is functional.

The values below come from ChEMBL document CHEMBL1150701, “A direct bioautographic tlc assay for compounds possessing antibacterial activity” (1987).

Active and inactive are the calls of the source. No cut-off for these calls is given here.

Consider `CC[C@@]1(O)C(=O)OCc2c1cc1n(c2=O)Cc2cc3cc(O)ccc3nc2-1`, for which the outcome in the assay on Escherichia coli [1] and in the assay with Bacillus subtilis [2] was inactive.

For the molecule `CC1=CC(=O)[C@@H](O)[C@]2(C)[C@H]3[C@@]4(O)OC[C@@]35[C@@H](C[C@@H]12)OC(=O)C[C@H]5[C@@H](C)[C@H]4O`, the result in the assay on Escherichia coli [1] and with Bacillus subtilis [2] was inactive.

Turning to `COC(=O)[C@]12OC[C@]34[C@H]([C@@H](O)[C@@H]1O)[C@@]1(C)[C@H](O)C(=O)C=C(C)[C@@H]1C[C@H]3OC(=O)[C@H](OC(=O)CC(C)C)[C@@H]24`, the outcome in the assay on Escherichia coli [1] and with Bacillus subtilis [2] was inactive.

Regarding `COc1cc([C@@H]2c3cc4c(c(O)c3C[C@H]3COC(=O)[C@@H]32)OCO4)cc(OC)c1O`, the result with Escherichia coli [1] and in the assay with Bacillus subtilis [2] was Active.

As to `CC1(C)S[C@@H]2[C@H](NC(=O)COc3ccccc3)C(=O)N2[C@H]1C(=O)O` [PENICILLIN V], the MIC in the assay with Escherichia coli [3] is above 2 µg; against Bacillus subtilis [4], 0.005 µg.

In the case of `CC[C@H](/C=C/[C@@H](C)[C@H]1CC[C@H]2[C@@H]3CC=C4C[C@@H](O)CC[C@]4(C)[C@H]3CC[C@]12C)C(C)C` [STIGMASTEROL], the MIC in the assay on Escherichia coli [3] and against Bacillus subtilis [4] was above 20 µg throughout.

For `O=c1c(O)c(-c2ccc(O)c(O)c2)oc2cc(O)cc(O)c12` [QUERCETIN], the MIC with Escherichia coli [3] and with Bacillus subtilis [4] was 5 µg each time.

On to `COc1cc([C@@H]2c3cc4c(c(O)c3C[C@H]3COC(=O)[C@@H]32)OCO4)cc(OC)c1OC`, for which the result in the assay on Escherichia coli [1] and with Bacillus subtilis [2] was inactive.

For the molecule `CC[C@H](CC[C@@H](C)[C@H]1CC[C@H]2[C@@H]3CC=C4C[C@@H](O)CC[C@]4(C)[C@H]3CC[C@]12C)C(C)C` [BETA-SITOSTEROL], the MIC with Escherichia coli [3] and in the assay with Bacillus subtilis [4] was above 20 µg in each case.

Take `CC1=CC(=O)[C@@H](O)[C@]2(C)[C@H]3[C@]4(O)OC[C@]35[C@H]([C@@H](C)[C@H]4O)[C@@H](O)C(=O)O[C@@H]5C[C@@H]12`: the outcome in the assay on Escherichia coli [1] and with Bacillus subtilis [2] was inactive.

Turning to `CC[C@@]1(O)C(=O)OCc2c1cc1n(c2=O)Cc2cc3c(OC)cccc3nc2-1`, the outcome with Escherichia coli [1] and in the assay with Bacillus subtilis [2] was inactive.

For the molecule `COc1cc([C@@H]2c3cc4c(cc3[C@H](O)[C@H]3COC(=O)[C@H]23)OCO4)cc(OC)c1OC`, the outcome with Escherichia coli [1] and in the assay with Bacillus subtilis [2] was Active.

Take `O=C(O)/C=C/c1ccc(O)cc1` [COUMARIC ACID]: the MIC in the assay on Escherichia coli [3] was found to be 5 µg; in the assay with Bacillus subtilis [4], 2.5 µg.

Consider `CC(=O)O[C@H]1C(=O)O[C@@H]2C[C@H]3C(C)=CC(=O)[C@@H](O)[C@]3(C)[C@H]3[C@]4(O)OC[C@]32[C@@H]1[C@@H](C)[C@H]4O`, for which the outcome in the assay on Escherichia coli [1] and with Bacillus subtilis [2] was inactive.

`O=C(N[C@H](CO)[C@H](O)c1ccc([N+](=O)[O-])cc1)C(Cl)Cl` [CHLORAMPHENICOL]: the MIC came to 0.02 µg against Escherichia coli [3] and 0.01 µg against Bacillus subtilis [4].

For `CC[C@@]1(O)C(=O)OCc2c1cc1n(c2=O)Cc2cc3ccccc3nc2-1`, the result with Escherichia coli [1] and in the assay on Bacillus subtilis [2] was inactive.

As to `COc1cc([C@@H]2c3cc4c(cc3C[C@H]3COC(=O)[C@@H]32)OCO4)cc(OC)c1O`, the outcome in the assay with Escherichia coli [1] and in the assay on Bacillus subtilis [2] was inactive.

In the case of `OC[C@H]1O[C@@](CO)(O[C@H]2O[C@H](CO)[C@@H](O)[C@H](O)[C@H]2O)[C@@H](O)[C@@H]1O` [SUCROSE], the MIC in the assay with Escherichia coli [3] and in the assay with Bacillus subtilis [4] was above 20 µg each time.

As for `CCCCCCCCCCCCCCCC(=O)O` [PALMITIC ACID], the MIC in the assay on Escherichia coli [3] and against Bacillus subtilis [4] was above 20 µg in each case.
